For assay [1], the target named is T1, Growth factor receptor-bound protein 2 (Homo sapiens, UniProt P62993). Nature of the assay: In vitro binding affinity in whole cells for Grb2 SH2 domain. Format: cell-based.
Assay [2] addresses T1, Growth factor receptor-bound protein 2. Nature of the assay: In vitro binding affinity in extracellular ELISA-based assay for Grb2 SH2 domain. Background: ELISA stands for enzyme-linked immunosorbent assay.
The next assay concerns MDA-MB-453. In words: Inhibition of growth-factor-stimulated MDA-MB-453 breast cancer cell proliferation. Conditions: Homo sapiens. Type of assay: functional, cell-based.
Assay [3] addresses T1, Growth factor receptor-bound protein 2. In words: Inhibition of Grb2 SH2 domain binding to erbB-2.
Assay [4] has the same target. Nature of the assay: In vitro binding affinity for Grb2 SH2 domain.

T1 sequence (P62993 whole entry, the tested form may be a part): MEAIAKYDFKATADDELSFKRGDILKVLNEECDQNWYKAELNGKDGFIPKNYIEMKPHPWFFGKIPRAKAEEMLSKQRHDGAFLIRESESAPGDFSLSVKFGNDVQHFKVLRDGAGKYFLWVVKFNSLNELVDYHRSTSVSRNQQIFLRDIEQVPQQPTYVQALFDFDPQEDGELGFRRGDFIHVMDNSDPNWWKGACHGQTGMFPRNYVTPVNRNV

In general, IC50 refers to the concentration at which inhibition is half-maximal. For the compound `NC(=O)C[C@@H]1NC(=O)C2(CCCCC2)NC(=O)C[C@@H](c2ccc(CP(=O)(O)O)cc2)/C=C/C[C@@H](Cc2cccc3ccccc23)CNC1=O`, in assay [1], the IC50 is ≥ 10000 nM.
As to `NC(=O)C[C@@H]1NC(=O)C2(CCCCC2)NC(=O)[C@@H](CC(=O)O)[C@@H](c2ccc(CP(=O)(O)O)cc2)/C=C/C[C@@H](Cc2cccc3ccccc23)CNC1=O`, the values for the IC50 in assay [1] and in assay [2] were ≤ 1000 nM and 2 nM, respectively.
As a reminder, the Kd is the free concentration of one partner at which half of the binding sites on the other are occupied at equilibrium, for simple one-to-one binding. Low values mean higher affinity, high ones lower affinity. `Cc1ccc2c(ccn2C[C@@H]2C/C=C/[C@H](c3ccc(CP(=O)(O)O)cc3)[C@H](CC(=O)O)C(=O)NC3(CCCCC3)C(=O)N[C@@H](CC(N)=O)C(=O)NC2)c1` [listing 1 of 2 here]: the IC50 in the assay with MDA-MB-453 is 600 nM; in assay [3] it was ≤ 10 nM. Also, in assay [4], the affinity, expressed as Kd, was 0.093 nM.
With `Cc1ccc2c(ccn2C[C@@H]2C/C=C/[C@H](c3ccc(CP(=O)(O)O)cc3)[C@H](CC(=O)O)C(=O)NC3(CCCCC3)C(=O)N[C@@H](CC(N)=O)C(=O)NC2)c1` [listing 2 of 2 here], the Kd in assay [4] was 0.075 nM. This counts as picomolar.

The record behind these values is ChEMBL document CHEMBL1137084, “Synthesis of a 5-methylindolyl-containing macrocycle that displays ultrapotent Grb2 SH2 domain-binding affinity” (J Med Chem, 2004).
